Reference: article PMC8250858, “A Systematic Study of the Stability, Safety, and Efficacy of the de novo Designed Antimicrobial Peptide PepD2 and Its Modified Derivatives Against Acinetobacter baumannii” (Frontiers in Microbiology, 2021)
Values after ≈ are worked out from the molar mass of the structure shown. Read-outs that look alike come from different tables or passages of the source. Non-standard residues stand in square brackets, D forms with d. Residues, ends and D or L forms follow the SMILES beside them. *: point of attachment. Stearoyl = CCCCCCCCCCCCCCCCCC(=O)*; Palmitoyl = CCCCCCCCCCCCCCCC(=O)*; Myristoyl = CCCCCCCCCCCCCC(=O)*; Octanoyl = CCCCCCCC(=O)*; Orn = NCCC[C@H](N)C(=O)O; Hexanoyl = CCCCCC(=O)*; Butyryl = CCCC(=O)*

Columns and labels:
Hemolytic assay = format: cell-based, rat
Description: The blood cells were washed three times with PBS, where the volume of PBS was the same as that of the original blood, by gently turning the centrifuge tube upside down. After washing, ten microliters of blood cells were diluted 2,000-fold in PBS to count the cells. Finally, red blood cells were diluted to 5 × 10^8 cells/mL in PBS. Peptides were dissolved in water and filtered through a 0.2-μm filter to make a stock solution. The peptide concentration was quantitated by the UV280. The peptide solution was diluted in PBS to different concentrations (five times the tested concentrations). Twenty microliters of the peptide in PBS was mixed with 80 μL of red blood cell solution in a 96-well plate (V-bottom). The final peptide concentration was 16–256 μg/mL. In the positive control group, 20 μL of 5% Triton X-100 was added to the red blood cell solution for a final Triton X-100 concentration of 1%. For the negative control group, 20 μL of PBS solution was added. The 96-well plate was incubated at 37°C for 45 min. After centrifuging the 96-well plate at 1,500 × g for 5 min, 30 μL of the supernatant was mixed with 100 μL of deionized water in a 96-well plate (flat bottom). The concentration of heme in each well was measured by the UV405 using an Infinite M1000 pro (Tecan Austria GmbH, Austria). The hemolytic activity was calculated using the following formula. Hemolyticactivity=[(F-F0)/(Ft-F0)]×100% F is the UV405 of the peptide-treated sample F0 is the UV405 of the sample without peptide (negative control) Ft is the UV405 of the Triton-treated sample (positive control)

A. baumannii ATCC 17978 = format: cell-based, Acinetobacter baumannii
Description: Following CLSI guideline M07-A11, single bacterial colonies of A. baumannii ATCC 17978 grown on Müller–Hinton agar (MHA) plates were picked and inoculated in 4 mL of Müller–Hinton broth (MHB) at 37°C and shaken at 180 rpm for 4∼6 h. The bacterial broth was diluted in the same medium to give a cell density of 1∼2 × 10^8 CFU/mL (OD600 = 0.38∼0.4 for A. baumannii) (Supplementary Figure 1; [Dillon et al., 2020]). Then, the broth was diluted 20-fold. Peptides were dissolved in water and filtered through a 0.2-μm filter to make a stock solution. The peptide concentration was quantified by the UV280. Then, the peptide solution was serially diluted in MHB to final peptide concentrations of 1, 2, 4, 8, 16, and 32 μg/mL. One hundred microliters of serially diluted peptide and 10 μL of bacterial culture were mixed in a 96-well polystyrene plate. Each well contained approximately 5 × 10^5 CFU/mL. The positive control was a mixture of 100 μL of MHB and 10 μL of the bacterial culture. The negative control was 110 μL of MHB. The plates were incubated at 37°C without shaking. […] The bacterium-peptide mixtures (the mixture without visible growth and the mixture containing a two-fold […] peptide concentration than the mixture without growth), positive control, and negative control (3 μL each) were spotted on an MHA plate and incubated at 37°C for 24 h. The MBC was determined as the lowest peptide concentration at which no colonies formed.
The MIC and MBC of our designed peptides against A. baumannii were obtained by using the broth microdilution method in the CLSI protocol. The bacterial cell number was carefully counted, and a final cell density of 5 × 10^5 CFU/mL in each well was used in the MIC test (Supplementary Figure 1). The minimal peptide concentration at which no bacterial growth was observed was taken as the MIC value. The culture after peptide treatment was spotted on an MHA plate, and the peptide concentration that could kill all the bacteria was defined as the MBC. The MIC/MBC and hemolytic activity of these peptides are shown and compared in Figure 1.

HEK293 cells = format: cell-based, human
Description: Cell viability assays were performed by using the CellTiter 96® AQueous Non-Radioactive Cell Proliferation Assay (Promega, United States), in which 3-(4,5-dimethylthiazol-2-yl)-5-(3-carboxymethoxyphenyl)-2-(4-sulfophenyl)-2H-tetrazolium salt (MTS) can be reduced to purple-colored formazan by intact cells. […] The test peptide was dissolved in water and filtered through a 0.2-μm filter. The peptide concentration was quantitated by the UV280 to make a 5,120 μg/mL stock solution and then serially diluted in serum-free DMEM. On the second day, the medium was replaced with 100 μL of serum-free DMEM containing different peptide concentrations and incubated for 1 or 24 h. Serum-free DMEM without peptide was used as a negative control and medium containing 1% Triton X-100 was used as a positive control. One milligram of MTS powder was dissolved in 0.5 mL of Dulbecco’s phosphate-buffered saline (DPBS). The MTS solution was mixed with one-twentieth of a phenazine methosulfate (PMS) solution ([…]). To each well, 20 μL of the MTS/PMS solution was added. After 3 h, the absorbance was measured with an Infinite M1000 pro (Tecan Austria GmbH, Austria) at a wavelength of 490 nm. Cell viability was calculated using the following equation. Cellviability=[(A-Ap)/(An-Ap)]×100% A is the UV490 of the peptide-treated sample An is the UV490 of the sample without peptide (negative control) Ap is the UV490 of the Triton-treated sample (positive control)

in vitro = in vitro ADME, rat; conditions: for half-life at 0.6 mg/mL: rat plasma, room temperature
Description: EDTA-treated rat whole blood was centrifuged at 4°C and 840 × g for 5 min, and then the blood cells were removed ([[…] et al., 2019]). The supernatant was placed in an Eppendorf tube and centrifuged at 4°C and 13,000 rpm for 10 min to remove lipids (white precipitate). The supernatant was filtered through a 0.2-μm filter. The peptide was dissolved in water and filtered through a 0.2-μm filter. The peptide concentration was quantified by the UV280 to make a 1 mg/mL stock solution. […] At the indicated time, the peptide was analyzed by HPLC with a C18 column using a linear gradient of 20-65% B over 15 min. Solution A: 5% acetonitrile plus 0.1% trifluoroacetic acid in water; solution B: 0.1% trifluoroacetic acid in acetonitrile.

[1] = rat red blood cells, 256 μg/mL peptide, 37°C 45 min, read-out: Hemolysis (%) at 256 μg/mL

Compound | hemolysis at 45 min, 256 μg/mL (Hemolytic assay; rat) [%] | MBC A. baumannii 17978 (A. baumannii ATCC 17978; ATCC 17978, 24 h) | also measured
CCCCCCCCCCCCCC(=O)N[C@@H](Cc1c[nH]c2ccccc12)C(=O)N[C@@H](CCCCN)C(=O)N[C@@H](CCCCN)C(=O)N[C@@H](CC(C)C)C(=O)N[C@@H](CCCCN)C(=O)N[C@@H](CCCCN)C(=O)N[C@@H](CC(C)C)C(=O)N[C@@H](CC(C)C)C(=O)N[C@@H](CCCCN)C(=O)N[C@@H](CCCCN)C(=O)N[C@@H](CC(C)C)C(=O)N[C@@H](CCCCN)C(=O)N[C@@H](CCCCN)C(=O)N[C@@H](CC(C)C)C(N)=O [pepD2M] (Myristoyl-WKKLKKLLKKLKKL-NH2) | 93.6 | – | –
CCCCCCCCCCCCCCCC(=O)N[C@@H](Cc1c[nH]c2ccccc12)C(=O)N[C@@H](CCCCN)C(=O)N[C@@H](CCCCN)C(=O)N[C@@H](CC(C)C)C(=O)N[C@@H](CCCCN)C(=O)N[C@@H](CCCCN)C(=O)N[C@@H](CC(C)C)C(=O)N[C@@H](CC(C)C)C(=O)N[C@@H](CCCCN)C(=O)N[C@@H](CCCCN)C(=O)N[C@@H](CC(C)C)C(=O)N[C@@H](CCCCN)C(=O)N[C@@H](CCCCN)C(=O)N[C@@H](CC(C)C)C(N)=O [pepD2P] (Palmitoyl-WKKLKKLLKKLKKL-NH2) | 83.5 | – | –
CCCCCCCCCCCCCCCCCC(=O)N[C@@H](Cc1c[nH]c2ccccc12)C(=O)N[C@@H](CCCCN)C(=O)N[C@@H](CCCCN)C(=O)N[C@@H](CC(C)C)C(=O)N[C@@H](CCCCN)C(=O)N[C@@H](CCCCN)C(=O)N[C@@H](CC(C)C)C(=O)N[C@@H](CC(C)C)C(=O)N[C@@H](CCCCN)C(=O)N[C@@H](CCCCN)C(=O)N[C@@H](CC(C)C)C(=O)N[C@@H](CCCCN)C(=O)N[C@@H](CCCCN)C(=O)N[C@@H](CC(C)C)C(N)=O [pepD2S] (Stearoyl-WKKLKKLLKKLKKL-NH2) | 60.7 | – | –
CCCC(=O)N[C@@H](Cc1c[nH]c2ccccc12)C(=O)N[C@@H](CCCCN)C(=O)N[C@@H](CCCCN)C(=O)N[C@@H](CC(C)C)C(=O)N[C@@H](CCCCN)C(=O)N[C@@H](CCCCN)C(=O)N[C@@H](CC(C)C)C(=O)N[C@@H](CC(C)C)C(=O)N[C@@H](CCCCN)C(=O)N[C@@H](CCCCN)C(=O)N[C@@H](CC(C)C)C(N)=O [pepD3B] (Butyryl-WKKLKKLLKKL-NH2) | 7.89 | 8 µg/mL (≈ 5.35 µM) | –
CCCCCC(=O)N[C@@H](Cc1c[nH]c2ccccc12)C(=O)N[C@@H](CCCCN)C(=O)N[C@@H](CCCCN)C(=O)N[C@@H](CC(C)C)C(=O)N[C@@H](CCCCN)C(=O)N[C@@H](CCCCN)C(=O)N[C@@H](CC(C)C)C(=O)N[C@@H](CC(C)C)C(=O)N[C@@H](CCCCN)C(=O)N[C@@H](CCCCN)C(=O)N[C@@H](CC(C)C)C(N)=O [pepD3H] (Hexanoyl-WKKLKKLLKKL-NH2) | 54.1 | 8 µg/mL (≈ 5.25 µM) | –
CCCCCCCC(=O)N[C@@H](Cc1c[nH]c2ccccc12)C(=O)N[C@@H](CCCCN)C(=O)N[C@@H](CCCCN)C(=O)N[C@@H](CC(C)C)C(=O)N[C@@H](CCCCN)C(=O)N[C@@H](CCCCN)C(=O)N[C@@H](CC(C)C)C(=O)N[C@@H](CC(C)C)C(=O)N[C@@H](CCCCN)C(=O)N[C@@H](CCCCN)C(=O)N[C@@H](CC(C)C)C(N)=O [pepD3O] (Octanoyl-WKKLKKLLKKL-NH2) | 86 | 8 µg/mL (≈ 5.16 µM) | –
CC(=O)N[C@@H](Cc1c[nH]c2ccccc12)C(=O)N[C@@H](CCCN)C(=O)N[C@@H](CCCN)C(=O)N[C@@H](CC(C)C)C(=O)N[C@@H](CCCN)C(=O)N[C@@H](CCCN)C(=O)N[C@@H](CC(C)C)C(=O)N[C@@H](CC(C)C)C(=O)N[C@@H](CCCN)C(=O)N[C@@H](CCCN)C(=O)N[C@@H](CC(C)C)C(=O)N[C@@H](CCCN)C(=O)N[C@@H](CCCN)C(=O)N[C@@H](CC(C)C)C(N)=O [pepO2, Ac-WOOLOOLLOOLOOL-NH2] (Ac-W[Orn][Orn]L[Orn][Orn]LL[Orn][Orn]L[Orn][Orn]L-NH2) | 0.23 | 8 µg/mL (≈ 4.64 µM) | –
CC(=O)N[C@@H](Cc1c[nH]c2ccccc12)C(=O)N[C@H](CCCCN)C(=O)N[C@H](CCCCN)C(=O)N[C@H](CC(C)C)C(=O)N[C@H](CCCCN)C(=O)N[C@H](CCCCN)C(=O)N[C@H](CC(C)C)C(=O)N[C@H](CC(C)C)C(=O)N[C@H](CCCCN)C(=O)N[C@H](CCCCN)C(=O)N[C@H](CC(C)C)C(=O)N[C@H](CCCCN)C(=O)N[C@H](CCCCN)C(=O)N[C@H](CC(C)C)C(N)=O [pepdD2, Ac-Wkklkkllkklkkl-NH2] (Ac-W[dK][dK][dL][dK][dK][dL][dL][dK][dK][dL][dK][dK][dL]-NH2) | – | 8 µg/mL (≈ 4.36 µM) | HEK293 IC50 (HEK293 cells; 1 h): 40.2 µg/mL; HEK293 IC50 (HEK293 cells; 24 h): 20.6 µg/mL; hemolysis at 45 min, 256 μg/mL (Hemolytic assay; [1]): 2.9%; Extension of peptide half-life in plasma (in vitro): more than 12 fold; remaining at 72 h, 0.6 mg/mL (in vitro; rat, plasma): ~90%; half-life at 0.6 mg/mL (in vitro; rat, plasma): 290 h
Ac-WKKLKKLLKKL-NH2 [pepD3] | – | 8 µg/mL | HEK293 IC50 (HEK293 cells; 1 h): 49.5 µg/mL; HEK293 IC50 (HEK293 cells; 24 h): 68.1 µg/mL; hemolysis at 45 min, 256 μg/mL (Hemolytic assay; [1]): 3.15%; half-life at 0.6 mg/mL (in vitro; rat, plasma): 19.1 h
Ac-WKKLKKLLKKLKKL-NH2 [pepD2] | – | 8/8 μg/mL | MIC A. baumannii 17978 (A. baumannii ATCC 17978; MHB, 20 h, 5 × 10^5 CFU/mL): 8 µg/mL; MBC A. baumannii 17978 (A. baumannii ATCC 17978; spotted on MHA plate, 24 h): 8 µg/mL; HEK293 IC50 (HEK293 cells; 1 h): 29.1 µg/mL; HEK293 IC50 (HEK293 cells; 24 h): 37.3 µg/mL; hemolysis at 45 min, 256 μg/mL (Hemolytic assay; [1]): 9.6%; half-life at 0.6 mg/mL (in vitro; rat, plasma): 23.1 h
Ac-WKKVKKVVKKVKKV-NH2 [pepV2] | 0.31 | 32 µg/mL | –
Ac-WRRLRRLLRRLRRL-NH2 [pepR2] | 106 | 8 µg/mL | –
